According to US20250270200A1, “CTPS1 INHIBITORS AND USES THEREOF” (Nimbus Clotho, Inc., priority 2022, published 2025):
Read-outs that look alike come from different tables or passages of the source.

Target: T1, human CTPS1 (Homo sapiens, UniProt P17812)
T1 sequence (P17812 1-591): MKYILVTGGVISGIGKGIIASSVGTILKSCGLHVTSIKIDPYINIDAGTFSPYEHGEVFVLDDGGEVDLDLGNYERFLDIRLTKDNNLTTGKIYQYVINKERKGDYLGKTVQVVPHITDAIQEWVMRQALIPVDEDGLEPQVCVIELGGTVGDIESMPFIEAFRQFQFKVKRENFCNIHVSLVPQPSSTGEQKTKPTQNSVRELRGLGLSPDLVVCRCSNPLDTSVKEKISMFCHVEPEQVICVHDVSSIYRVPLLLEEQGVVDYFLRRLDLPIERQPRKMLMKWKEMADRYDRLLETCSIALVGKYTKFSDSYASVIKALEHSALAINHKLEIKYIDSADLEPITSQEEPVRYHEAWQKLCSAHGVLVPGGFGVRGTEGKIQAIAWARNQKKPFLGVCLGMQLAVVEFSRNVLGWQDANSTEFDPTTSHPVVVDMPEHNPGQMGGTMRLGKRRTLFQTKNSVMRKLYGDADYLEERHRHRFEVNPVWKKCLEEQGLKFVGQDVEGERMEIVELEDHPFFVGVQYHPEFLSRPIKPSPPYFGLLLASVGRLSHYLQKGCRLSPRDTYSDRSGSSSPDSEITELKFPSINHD
Test: ADP-Glo assay, human CTPS1 enzyme inhibition
Format: biochemical
Conditions: read-out: ADP-Glo_WT_hCTPS1—25 nM_IC50 (IC50)
Method: The enzyme inhibitory activities of the compounds of the invention against the target of interest were determined using the ADP-Glo™ assay (Promega). Assays for human CTPS1 and CTPS2 were performed in 1× assay buffer containing 50 mM HEPES (Life Technologies), 10 mM Mg2+, 5 mM KCl, 2 mM DTT, 0.01% F-127, pH to 7.4 accordingly. All reagents are from Sigma-Aldrich, unless specified otherwise. Purified human full length active N-terminal FLAG-8×HIS-TEV tagged CTPS1 (UniprotKB—P17812, […]-CTPS1[1-591]) was generated using a mammalian expression system at Viva Biotech (Shanghai) Ltd.
Purified human CTPS1 protein was prepared in 1× assay buffer to the final working protein concentration required for the reaction. A 2.5 μL volume per well of human CTPS 1 protein was mixed with 0.1 μL per well of test compound dissolved in DMSO and pre-incubated at 25 degrees C. for 10 minutes. 2.5 μL per well of the reaction precursors ATP (UltraPure ATP from ADP-Glo™ kit) and UTP were then added and pre-incubated for an additional 10 minutes at 25 degrees C. Finally, the reaction was initiated by the addition of 5 μL of the reaction precursors L-glutamine and GTP. The final concentration of all reaction components in the assay: ATP (120 μM), UTP (160 μM), GTP (60 μM), L-Glutamine (100 μM), DMSO (1%), hCTPS1 (25 nM). This mixture was incubated for an appropriate amount of time within the determined linear phase of the reaction at 25 degrees C. under sealed plate conditions with constant agitation at 500 revolutions per minute (rpm). ADP-Glo™ reagent was added for 60 minutes (10 μL per well) and subsequently ADP-Glo™ development reagent was added for 60 minutes (20 μL per well) prior to signal detection in a microplate reader (Envision Multilabel Reader, Perkin Elmer). Following each reagent addition over the course of the assay, assay plates were pulse centrifuged for 1 minute at 1000 rpm.
The enzyme converts ATP to ADP and the ADP-Glo™ reagent subsequently depletes any remaining ATP in the reaction system. The ADP-Glo™ detection reagents converts the ADP that has been produced by the enzyme back into ATP, which is then utilized as a substrate together with luciferin for the enzyme luciferase. Light generated by this chemiluminescent reaction is quantified and is directly proportional to the amount of ADP produced by the CTPS1 enzyme reaction. […]

[1] = wild-type human CTPS1, 25 nM enzyme, ADP-Glo
[2] = wild-type human CTPS1 25 nM, ATP 120 μM, UTP 160 μM, GTP 60 μM, L-glutamine 100 μM, 25 degrees C.

| SMILES | IC50 [1] | IC50 [2] |
| --- | --- | --- |
| CCOc1cncc(-c2cnc(C(=O)NC(C[C@@H]3COCCN3C)c3cc(NS(=O)(=O)C4CC4)ccn3)s2)n1 (single isomer, unassigned) [I-103] | > 100 nM | – |
| CCOc1cncc(-c2cnc(C(=O)NC(c3cc(NS(=O)(=O)C4CC4)ccn3)C3CN(C)CCO3)s2)n1 (single isomer, unassigned) [I-105, N-((4-(cyclopropanesulfonamido)pyridin-2-yl)(4-methylmorpholin-2-yl)methyl)-5-(6-ethoxypyrazin-2-yl)thiazole-2-carboxamide] | 5 to 25 nM | – |
| CCOc1cncc(-c2cnc(C(=O)NC(c3cc(NS(=O)(=O)C4CC4)ccn3)C3CN(C)CCO3)s2)n1 (single isomer, unassigned) [I-106, N-((4-(cyclopropanesulfonamido)pyridin-2-yl)(4-methylmorpholin-2-yl)methyl)-5-(6-ethoxypyrazin-2-yl)thiazole-2-carboxamide] | 5 to 25 nM | – |
| CCOc1cncc(-c2cnc(C(=O)N[C@@H](CN3CCOCC3)c3cc(NS(=O)(=O)C4CC4)ncn3)s2)n1 (single isomer, unassigned) [I-247] | 5 to 25 nM | – |
| CCOc1cncc(-c2cnc(C(=O)N[C@H](c3cc(NS(=O)(=O)C4CC4)ncn3)C3CCOCC3)s2)n1 (single isomer, unassigned) [I-254] | 5 to 25 nM | – |
| CCOc1cncc(-c2cnc(C(=O)N[C@@H](c3cc(NS(=O)(=O)C4CC4)ncn3)C3CCOCC3)s2)n1 (single isomer, unassigned) [I-255] | 5 to 25 nM | – |
| COC[C@H](NC(=O)c1ncc(-c2cnn3ccc(Cl)cc23)s1)c1nccc(NS(=O)(=O)C2CC2)c1F (single isomer, unassigned) [II-1] | – | 5 to 25 nM |
| COC[C@@H](NC(=O)c1ncc(-c2cnn3ccc(Cl)cc23)s1)c1nccc(NS(=O)(=O)C2CC2)c1F (single isomer, unassigned) [II-2] | – | 5 to 25 nM |
| O=C(N[C@H](c1nccc(NS(=O)(=O)C2CC2)c1F)[C@H]1CCOC1)c1ncc(-c2cnn3ccc(Cl)cc23)s1 (single isomer, unassigned) [II-3] | – | 5 to 25 nM |
| O=C(N[C@@H](c1nccc(NS(=O)(=O)C2CC2)c1F)[C@@H]1CCOC1)c1ncc(-c2cnn3ccc(Cl)cc23)s1 (single isomer, unassigned) [II-4] | – | 5 to 25 nM |
| O=C(N[C@@H](c1nccc(NS(=O)(=O)C2CC2)c1F)[C@H]1CCOC1)c1ncc(-c2cnn3ccc(Cl)cc23)s1 (single isomer, unassigned) [II-5] | – | 5 to 25 nM |
| O=C(N[C@H](c1nccc(NS(=O)(=O)C2CC2)c1F)[C@@H]1CCOC1)c1ncc(-c2cnn3ccc(Cl)cc23)s1 (single isomer, unassigned) [II-6] | – | 5 to 25 nM |
| CCOc1cncc(-c2cnc(C(=O)N[C@@H](COC)c3cc(NS(=O)(=O)C4CC4)ncn3)s2)n1 (single isomer, unassigned) [II-7] | – | 5 to 25 nM |
| CCOc1cncc(-c2cnc(C(=O)N[C@H](COC)c3cc(NS(=O)(=O)C4CC4)ncn3)s2)n1 (single isomer, unassigned) [II-8] | – | 5 to 25 nM |
| COC[C@H](NC(=O)c1ncc(-c2cnn3ccc(Cl)cc23)s1)c1nccc(NS(=O)(=O)C2CC2)n1 (single isomer, unassigned) [II-9] | – | 5 to 25 nM |
| COC[C@@H](NC(=O)c1ncc(-c2cnn3ccc(Cl)cc23)s1)c1nccc(NS(=O)(=O)C2CC2)n1 (single isomer, unassigned) [II-10] | – | 25 to 50 nM |

| SMILES | IC50 [1] | IC50 [2] |
| --- | --- | --- |
| CCOc1cncc(-c2cnc(C(=O)N[C@@H](c3cccc(NS(=O)(=O)C(F)F)c3)[C@@H](C)CN3CCCCC3)s2)n1 (single isomer, unassigned) [II-11] | – | 25 to 50 nM |
| CCOc1cncc(-c2cnc(C(=O)N[C@@H](c3cccc(NS(=O)(=O)C(F)F)c3)[C@H](C)CN3CCCCC3)s2)n1 (single isomer, unassigned) [II-12] | – | 5 to 25 nM |
| CCOc1cncc(-c2cnc(C(=O)N[C@H](c3cccc(NS(=O)(=O)C(F)F)c3)[C@H](C)CN3CCCCC3)s2)n1 (single isomer, unassigned) [II-13] | – | > 100 nM |
| CCOc1cncc(-c2cnc(C(=O)N[C@H](c3cccc(NS(=O)(=O)C(F)F)c3)[C@@H](C)CN3CCCCC3)s2)n1 (single isomer, unassigned) [II-14] | – | 50 to 100 nM |
| O=C(N[C@H](c1cc(NS(=O)(=O)C2CC2)ccn1)C1CCOCC1)c1nnc(-c2cnn3ccc(Cl)cc23)s1 (single isomer, unassigned) [II-15] | – | 5 to 25 nM |
| O=C(N[C@@H](c1cc(NS(=O)(=O)C2CC2)ccn1)C1CCOCC1)c1nnc(-c2cnn3ccc(Cl)cc23)s1 (single isomer, unassigned) [II-16] | – | 5 to 25 nM |
| CCOc1cncc(-c2cnc(C(=O)N[C@H](c3nccc(NS(=O)(=O)C4CC4)c3F)[C@H]3CCOC3)s2)n1 (single isomer, unassigned) [II-17] | – | 5 to 25 nM |
| CCOc1cncc(-c2cnc(C(=O)N[C@H](c3nccc(NS(=O)(=O)C4CC4)c3F)[C@@H]3CCOC3)s2)n1 (single isomer, unassigned) [II-18] | – | 5 to 25 nM |
| CCOc1cncc(-c2cnc(C(=O)N[C@@H](c3nccc(NS(=O)(=O)C4CC4)c3F)[C@@H]3CCOC3)s2)n1 (single isomer, unassigned) [II-19] | – | 5 to 25 nM |
| CCOc1cncc(-c2cnc(C(=O)N[C@@H](c3cc(NS(=O)(=O)C4CC4)ccn3)[C@H](C)CN3CCCCC3)s2)n1 (stereo in doubt) [I-51, N-((1R,2R)-1-(4-(cyclopropanesulfonamido)pyridin-2-yl)-2-methyl-3-(piperidin-1-yl)propyl)-5-(6-ethoxypyrazin-2-yl)thiazole-2-carboxamide] | 5 to 25 nM | – |
| CCOc1cncc(-c2cnc(C(=O)N[C@@H](c3cc(NS(=O)(=O)C4CC4)ccn3)[C@@H](C)CN3CCCCC3)s2)n1 (stereo in doubt) [I-52, N-((1R,2S)-1-(4-(cyclopropanesulfonamido)pyridin-2-yl)-2-methyl-3-(piperidin-1-yl)propyl)-5-(6-ethoxypyrazin-2-yl)thiazole-2-carboxamide] | 50 to 100 nM | – |
| CCOc1cncc(-c2cnc(C(=O)N[C@H](c3cc(NS(=O)(=O)C4CC4)ccn3)[C@H](C)CN3CCCCC3)s2)n1 (stereo in doubt) [I-53, N-((1S,2R)-1-(4-(cyclopropanesulfonamido)pyridin-2-yl)-2-methyl-3-(piperidin-1-yl)propyl)-5-(6-ethoxypyrazin-2-yl)thiazole-2-carboxamide] | 5 to 25 nM | – |
| CCOc1cncc(-c2cnc(C(=O)N[C@H](c3cc(NS(=O)(=O)C4CC4)ccn3)[C@@H](C)CN3CCCCC3)s2)n1 (stereo in doubt) [I-54, N-((1S,2S)-1-(4-(cyclopropanesulfonamido)pyridin-2-yl)-2-methyl-3-(piperidin-1-yl)propyl)-5-(6-ethoxypyrazin-2-yl)thiazole-2-carboxamide] | 5 to 25 nM | – |
| CCOc1cncc(-c2cnc(C(=O)NCc3cc(NS(=O)(=O)C4CC4)ncn3)s2)n1 [I-5, N-((6-(cyclopropanesulfonamido)pyrimidin-4-yl)methyl)-5-(6-ethoxypyrazin-2-yl)thiazole-2-carboxamide] | 5 to 25 nM | – |
| O=C(NC(CCN1CCCCC1)c1cc(NS(=O)(=O)C2CC2)ccn1)c1ncc(-c2cnn3ccc(Cl)cc23)s1 (stereo not shown) [I-8, 5-(5-chloropyrazolo[1,5-a]pyridin-3-yl)-N-(1-(4-(cyclopropanesulfonamido)pyridin-2-yl)-3-(piperidin-1-yl)propyl)thiazole-2-carboxamide] | 25 to 50 nM | – |
